Data reported in patent US7618774B2, “Materials and methods for identifying genes and/or agents that alter replicative lifespan” (University of Rochester, priority 2003, dated 2009).
“Also recorded” adds a separate entry of the source.

What was measured:
K6001 cells = assay: DEAD assay for replicative lifespan; assay type: cell-based, S. cerevisiae
Text: One yeast strain that can be used in the assays of the present invention is S. cerevisiae strain K6001, which carries two distinct non-native genes (i.e., not contained within a single cassette). This strain was originally developed for the study of mating-type switching (Bobola et al. “Asymmetric Accumulation of Ash1p in Postanaphase Nuclei Depends on a Myosin and Restricts Yeast Mating-Type Switching to Mother Cells,” Cell 84:699-709 (1996), which is hereby incorporated by reference in its entirety). K6001 cells contain two independent copies of CDC6 expressed from either the repressible GAL1or mother-cell specific HO promoters. Cdc6p is an essential protein required for DNA replication. Transcription from the HO promoter in daughter cells is prevented by Ash1p, which is expressed exclusively in daughter cells (Sil, et al., “Identification of Asymmetrically Localized Determinant, Ash1p, Required for Lineage-Specific Transcription of the Yeast HO Gene,” Cell 84:711-22 (1996), which is hereby incorporated by reference in its entirety). When K6001 cells are cultured on galactose, GAL1::CDC6 is expressed in both mother and daughter cells, sustaining the replication of both. However, when the GAL1::CDC6 gene is repressed by glucose, only the mother-specific expression of HO::CDC6 remains to support growth. Given the tight regulation of the GAL1promoter, DNA replication fails and daughter cells arrest after one, or at most a few ectopic cytokineses. As a result, K6001 cultures grow approximately linearly in glucose (daughter cells accumulate and contribute to the optical density of the culture) until the mother cells reach their replicative capacity and cease producing daughter cells. Since Cdc6 is naturally unstable, and the GAL1 promoter is efficiently shut off in glucose, the transition from log growth to linear growth is relatively tight and rapid. […]
The DEAD assay was used to assess the effect of deleting SGS1 on replicative lifespan. […] After 48 hrs at 30° C. the number of daughter cells in each microcolony was counted by microdissection and plotted as a survival curve. […]

mammalian cells = conditions: literature reports; cited from earlier work
yeast = conditions: literature reports; cited from earlier work
Sir2 = Sir2 (Saccharomyces cerevisiae, UniProt P06700); conditions: in vitro; cited from earlier work
Chain of Sir2 (P06700 whole entry): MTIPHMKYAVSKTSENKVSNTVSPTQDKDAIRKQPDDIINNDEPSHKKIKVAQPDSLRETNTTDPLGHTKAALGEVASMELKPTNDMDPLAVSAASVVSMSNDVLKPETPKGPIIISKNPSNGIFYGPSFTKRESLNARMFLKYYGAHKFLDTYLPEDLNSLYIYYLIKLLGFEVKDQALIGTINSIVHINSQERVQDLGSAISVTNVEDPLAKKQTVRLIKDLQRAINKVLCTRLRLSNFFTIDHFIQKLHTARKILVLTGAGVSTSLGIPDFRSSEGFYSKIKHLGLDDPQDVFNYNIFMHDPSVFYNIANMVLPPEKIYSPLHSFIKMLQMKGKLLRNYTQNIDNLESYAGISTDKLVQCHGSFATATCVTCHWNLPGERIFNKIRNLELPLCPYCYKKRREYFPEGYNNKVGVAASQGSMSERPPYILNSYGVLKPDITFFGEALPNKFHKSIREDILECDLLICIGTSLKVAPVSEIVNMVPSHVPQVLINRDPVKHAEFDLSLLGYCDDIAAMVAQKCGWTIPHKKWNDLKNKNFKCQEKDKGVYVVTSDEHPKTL

Compound | lifespan (replicative) (K6001 cells; K6001 cells cultured in 5 μM paraquat versus lower concentration, FIG. 4) | mean lifespan (replicative) (K6001 cells; K6001 cells, paraquat between 0.1 μM to 5.0 μM, FIG. 4) | apoptosis (mammalian cells) | replicative lifespan of yeast (yeast) | Sir2 activation (Sir2) | mean lifespan (replicative) (K6001 cells; K6001 cells cultured in presence or absence of 10 μM resveratrol, FIG. 3)
C[n+]1ccc(-c2cc[n+](C)cc2)cc1 [paraquat] | apparently shorter | decreased in a dose-dependent fashion | induce apoptosis in mammalian cells | reduce replicative lifespan in yeast |  | 
Oc1ccc(C=Cc2cc(O)cc(O)c2)cc1 [resveratrol] |  |  |  | extends the replicative lifespan of yeast | actives Sir2 in vitro | significantly extended the mean lifespan; also recorded: longer mean lifespan
